From PubChem BioAssay AID743395 (Broad Institute, 2014)

Tested on: HepG2 viability, CellTiter-Glo ATP luminescence, 72 h
Experiment: viability loss in human hepatoma cells – cell-based, CellTiter-Glo luminescence, cherry-pick, set 2, cytotoxicity control, dose response (AID 743395)

CCOC(=O)[C@]12CCCC=C1N(Cc1cccc3ccccc13)C(=O)[C@H](CC(=O)NCc1cccc(C(F)(F)F)c1)C2
AC35: 9.99 µM

COc1ccc(OC)c(Nc2nc(-c3sc(NC(=O)C(C)(C)C)nc3C)cs2)c1
AC35: 9.87 µM

COc1ccccc1NC(=O)CSc1ccc(-c2ccccn2)nn1
AC35: 20.4 µM

CN(C)CCNC(=O)c1ccc(Cl)c2cc3ccccc3nc12
AC35: 2.59 µM

CCC(=O)N1CC2(CCN(Cc3ccc(Cl)cc3)CC2)c2c(n(C)c3cc(OC)ccc23)[C@H]1CO
AC35: 9.27 µM

CC1(C(=O)NCc2cccs2)Cc2c(-c3ccc4c(c3)OCO4)ccnc2O1 (stereo not given)
AC35: 16.4 µM

COc1cc(Nc2c3c(nc4ccccc24)CCC3)cc(OC)c1OC
AC35: 7.54 µM

C[C@H]1CN([C@@H](C)CO)S(=O)(=O)c2ccc(C#CC3CCCCC3)cc2O[C@H]1CN(C)Cc1cccnc1
AC35: 22.2 µM

O=C(NN=C1CCCC1)c1[nH]c2ccc(Cl)cc2c1-c1ccccc1
AC35: 18.9 µM

C[C@@H]1CN([C@@H](C)CO)C(=O)c2cc(C#CCN(C)C)cnc2O[C@H]1CN(C)Cc1ccc(-c2ccccc2)cc1
AC35: 11.5 µM

COc1ccccc1NC(=S)N(Cc1ccco1)Cc1cc2cc(C)cc(C)c2[nH]c1=O
AC35: 11.6 µM

COc1ccc(OC)c(C(=O)Cn2nnc(-c3ccc(N4CCOCC4)cc3)n2)c1
AC35: 16.6 µM

COC(=O)c1ccccc1-c1c2ccc(=N)cc-2oc2cc(N)ccc12
AC35: 15.8 µM

C=C1SC(Nc2c(C)cc(C)cc2C)=NC12CCCCC2
AC35: 17.2 µM

Brc1ccc2c(c1)C(C1=NCCN1)c1ccccc1CS2 (stereo not given)
AC35: 18.3 µM

CN(CC1CCCO1)S(=O)(=O)c1ccc(C(=O)Nc2nnc(-c3ccccc3)o2)cc1 (stereo not given)
AC35: 9.86 µM

COc1nc(-c2ccccc2)cc(-c2ccc3c(c2)OCO3)c1C#N
AC35: 8.32 µM

COc1ccc(/C(C)=N/NC(=O)c2cccc(S(=O)(=O)N3CCCC3)c2)c(O)c1
AC35: 0.944 µM

Cc1ccnc(N2C(=O)c3cccc4c([N+](=O)[O-])ccc(c34)C2=O)c1
AC35: 14.9 µM

CN1c2ccc(-c3ccc(F)cc3)cc2[C@H]2[C@H](CCN2S(=O)(=O)c2ccc(F)cc2)[C@H]1CO
AC35: 19.5 µM

O=C(Nc1ccccc1)N1CCCCN2[C@@H](CO)[C@H](c3ccc(C#Cc4ccccc4)cc3)[C@@H]2C1
AC35: 10.9 µM

COc1cccc(-c2ccc(C3[C@@H]4CN(S(=O)(=O)c5cccc(OC)c5)C[C@H]3N4)cc2)c1 (stereo not given in full)
AC35: 8.91 µM

COc1ccc(O)c(/C=N/NC(=O)c2ccc(N3CCCC3=O)cc2)c1
AC35: 2.93 µM

COc1ccc(OC)c(/C(C)=N\NC(=O)c2cc3cc(Cl)ccc3n2C)c1
AC35: 14 µM

CC(=O)Oc1ccc(N2C(=O)c3cccc4c([N+](=O)[O-])ccc(c34)C2=O)cc1
AC35: 16.7 µM

Nc1ccc2c3c(cccc13)C(=O)N(c1ccccc1)C2=O
AC35: 10.7 µM

O=[N+]([O-])c1ccc(N2CCOCC2)c2c1no[n+]2[O-]
AC35: 8.72 µM

COc1cc(/C=C2/SC(=S)N(Cc3ccccc3)C2=O)cc(Cl)c1O
AC35: 12.5 µM

COc1ccc(Nc2nc(-c3sc(C)nc3C)cs2)cc1
AC35: 1.29 µM

COc1ccc(NC(=O)c2nc(C)c(C3(C)CC(c4cccnc4)=NO3)s2)cc1 (stereo not given)
AC35: 13.9 µM

CN1C(=CC=C2C=C(I)C(=O)C(I)=C2)C(C)(C)c2ccccc21
AC35: 3.56 µM

Cc1ccc(OCCNC(=O)c2cccc(S(=O)(=O)NCc3ccccc3)c2)cc1
AC35: 15.2 µM

CC(=O)NC(c1ccc(Cl)cc1Cl)c1ccc2cccnc2c1O (stereo not given)
AC35: 0.921 µM

C#C[C@]1(O)CC[C@H]2[C@@H]3CCc4cc(OC5CCCC5)ccc4[C@H]3CC[C@@]21C
AC35: 21 µM

CCc1ccc(OCc2n[nH]c(=S)n2C(C)CCCC(C)C)cc1 (stereo not given)
AC35: 13.9 µM

CC(=O)N1CCc2c(sc(NC(=O)c3ccc4c(c3)OCCO4)c2C#N)C1
AC35: 19.4 µM

CCCNC(=O)c1ccc2c(=O)c(O)c(-c3cccc(Br)c3)[nH]c2c1
AC35: 4.65 µM

O=C(OCc1ccc(Br)cc1)c1cc([N+](=O)[O-])ccc1N1CCOCC1
AC35: 10.8 µM

Cc1cnc(NC(=O)c2ccc3c(c2)OCCO3)s1
AC35: 4.22 µM

COc1cccc(C(=O)Nc2sc3c(c2C#N)CCN(C(C)=O)C3)c1
AC35: 11.6 µM

O=C(NCCOc1ccccc1F)c1cc([N+](=O)[O-])ccc1N1CCOCC1
AC35: 13.6 µM

COc1cccc(Sc2ccccc2/C=N/NC(N)=O)c1
AC35: 9.98 µM

CCCn1c(CN2CCN(C(=O)OCC)CC2)nc2cc(NC(=O)CC)ccc21
AC35: 18.9 µM

NS(=O)(=O)c1ccc(S(=O)(=O)N(CCc2ccccc2)Cc2ccccn2)cc1
AC35: 21.5 µM

O=C(C[C@@H]1CC[C@@H]2[C@H](COC[C@H](O)CN2Cc2ccc(Oc3ccccc3)cc2)O1)N1CCN(c2ccccc2)CC1
AC35: 7.84 µM

Cc1ccc2c(C)c3ccc4ccccc4c3c[n+]2c1
AC35: 5.47 µM

COc1ccc(-c2ccc3oc(-c4ccc(OC)cc4)c(C#CCO)c3c2)cc1
AC35: 3.2 µM

COc1ccc([C@H]2C[C@H](O)[C@@H](n3cc(-c4ccc(F)cc4)nn3)CN2Cc2cccs2)cc1
AC35: 6.12 µM

CCOC(=O)c1ccc(N2CCOCC2)c(NC(=O)c2c(-c3ccccc3)noc2C)c1
AC35: 3.87 µM

O=C(C1CCCC1)N1CC(=O)N2[C@H](CO)[C@@H](c3ccc(-c4ccccc4F)cc3)[C@@H]2C1
AC35: 16.3 µM

O=C(Nc1ccc(Br)cn1)c1cccc2ccccc12
AC35: 5.99 µM

CN(C)C(=O)C(CCN1CCC(O)(c2ccc(Cl)cc2)CC1)(c1ccccc1)c1ccccc1
AC35: 10.1 µM

O=c1c2ccccc2sc2c(CO)ccc(NCCN3CCCCC3)c12
AC35: 4.82 µM

O=[N+]([O-])c1ccc(Sc2cccc[n+]2[O-])c2nonc12
AC35: 5.72 µM

CCOc1cc(/C=N/NC(=O)N/N=C/c2ccc(O)c(OCC)c2)ccc1O
AC35: 20 µM

COc1ccc(-c2cc(C(F)F)n3ncc(C(=O)N4CCc5ccccc54)c3n2)cc1
AC35: 9.81 µM

Oc1cccc(/C=N/Nc2ccc(Cl)nn2)c1O
AC35: 7.7 µM

COc1ccc(-c2csc(NC(=S)NC(=O)/C=C/c3ccco3)n2)cc1OC
AC35: 14.3 µM

Cc1ncc(CO)c(/C=N/Nc2ccc(C(F)(F)F)cn2)c1O
AC35: 4.63 µM

CCN1/C(=C/c2ccc3cc(C)cc(C)c3[n+]2CC)Sc2cc(C)ccc21
AC35: 0.908 µM

Cc1ccc(-c2ccc3c(c2)O[C@H](CN(C)Cc2ccccn2)[C@@H](C)CN([C@H](C)CO)S3(=O)=O)cc1
AC35: 13.8 µM

CCC1=Nc2cc(C(=O)NCC3CCCO3)ccc2Sc2ccc(Cl)cc21 (stereo not given)
AC35: 10.6 µM

Cc1ccc2nc(-c3ccc4c(c3)OCCO4)cn2c1
AC35: 8.36 µM

COc1cc(/C=C2/SC(=Nc3ccc(O)cc3)NC2=O)cc(OC)c1O
AC35: 14.7 µM

COc1ccc(NC(=O)C2(C)Cc3c(-c4cccc(NC(C)=O)c4)ccnc3O2)cc1 (stereo not given)
AC35: 4.15 µM

O=C(Nc1nc(-c2ccccn2)cs1)c1ccc(F)c(S(=O)(=O)N2CCOCC2)c1
AC35: 11.3 µM

O=C1c2ccccc2C(=O)c2c1cccc2N1CCCC1
AC35: 18.9 µM

COc1cc(OC)cc(C(=O)N[C@H](C(=O)Nc2nc3ccccc3[nH]2)C(C)C)c1
AC35: 10.2 µM

Cn1nccc1C(=O)N/N=C/c1c(O)ccc2ccccc12
AC35: 4.13 µM

O=C(N/N=C/c1cc2c3c(c1O)CCCN3CCC2)c1ccccc1O
AC35: 0.751 µM

Cc1ccccc1S(=O)(=O)N1C[C@@H]2N[C@H](C1)C2c1ccc(-c2cccc(C#N)c2)cc1 (stereo not given in full)
AC35: 9.94 µM

O=C1C=C(NCCc2cc(Br)c(O)c(Br)c2)C(=O)c2ncccc21
AC35: 6.95 µM

CCc1nc(N)nc(N)c1-c1ccc(Cl)c([N+](=O)[O-])c1
AC35: 0.276 µM

Cc1cc(/C=N/n2c(COc3ccccc3C)nc3ccccc3c2=O)c(O)c([N+](=O)[O-])c1
AC35: 8.05 µM

O=C(CCCN1CCC(O)(c2cccc(C(F)(F)F)c2)CC1)c1ccc(F)cc1
AC35: 22.2 µM
